Data set [1] deals with T1, NKCC1 (Mus musculus, UniProt P55012).
T1 construct: primary neuronal cultures of dissociated hippocampal neurons were prepared from E18 C57BL/6J mice; endogenous in cells; host or cells: primary hippocampal neurons from E18 C57BL/6J mice, 3 DIV
T1 sequence (P55012 1-1205): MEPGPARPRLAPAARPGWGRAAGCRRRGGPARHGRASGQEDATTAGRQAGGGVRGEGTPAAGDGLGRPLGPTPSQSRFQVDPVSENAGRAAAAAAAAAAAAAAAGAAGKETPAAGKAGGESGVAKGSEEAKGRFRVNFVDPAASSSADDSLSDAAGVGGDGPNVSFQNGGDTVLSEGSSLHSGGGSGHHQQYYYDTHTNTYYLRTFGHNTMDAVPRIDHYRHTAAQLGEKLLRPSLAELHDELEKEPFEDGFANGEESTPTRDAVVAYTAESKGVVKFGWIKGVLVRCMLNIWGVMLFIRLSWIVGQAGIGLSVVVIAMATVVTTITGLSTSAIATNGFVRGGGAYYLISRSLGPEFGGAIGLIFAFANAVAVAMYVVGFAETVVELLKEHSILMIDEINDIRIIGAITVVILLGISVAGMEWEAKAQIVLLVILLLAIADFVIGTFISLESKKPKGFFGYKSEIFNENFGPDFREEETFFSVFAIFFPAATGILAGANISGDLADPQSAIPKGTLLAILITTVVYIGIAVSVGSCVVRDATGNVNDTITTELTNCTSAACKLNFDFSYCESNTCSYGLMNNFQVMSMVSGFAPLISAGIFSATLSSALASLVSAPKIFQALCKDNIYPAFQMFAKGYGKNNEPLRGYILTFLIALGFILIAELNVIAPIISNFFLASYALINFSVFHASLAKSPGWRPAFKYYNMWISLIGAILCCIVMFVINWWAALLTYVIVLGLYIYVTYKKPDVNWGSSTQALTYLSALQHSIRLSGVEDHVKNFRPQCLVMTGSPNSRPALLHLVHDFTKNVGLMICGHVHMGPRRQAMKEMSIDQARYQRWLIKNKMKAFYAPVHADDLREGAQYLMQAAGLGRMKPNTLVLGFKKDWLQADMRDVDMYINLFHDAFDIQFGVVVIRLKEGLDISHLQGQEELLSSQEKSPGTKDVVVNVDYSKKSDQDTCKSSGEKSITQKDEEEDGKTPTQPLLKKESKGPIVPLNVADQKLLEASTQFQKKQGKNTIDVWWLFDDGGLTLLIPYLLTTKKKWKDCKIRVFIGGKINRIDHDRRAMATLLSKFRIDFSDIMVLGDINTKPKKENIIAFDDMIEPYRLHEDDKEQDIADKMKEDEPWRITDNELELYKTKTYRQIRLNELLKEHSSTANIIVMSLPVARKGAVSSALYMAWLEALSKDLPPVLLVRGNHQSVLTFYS
Description: Ca2+ influx assay in immature primary neuronal cultures (indirect measure of NKCC1 inhibition). The format is cell-based. To be noted: cultured neurons, 3 DIV. As for the experimental part: To perform the Ca^2+-influx assay, primary neuronal cultures of dissociated hippocampal neurons were prepared from E18 C57BL/6J mice (Charles River) as previously described[56] and plated in 96-well black-walled, clear-bottomed plates coated with poly-L-lysine (Sigma; 0.1 mg/mL in 100 mM borate buffer, pH 8.5) at a density of 30,000 cells per well. Neurons were maintained in neurobasal medium supplemented with 2% B-27 supplement, 0.5 mM glutamine, 50 U/mL of penicillin, and 50 μg/mL of streptomycin (all from Gibco). The cells were incubated at 37 °C and 5% CO2 until DIV 3 for the Ca^2+ influx assay.
At 3 DIVs, neurons were loaded with 2.5 μM of the Ca^2+-sensitive day Fluo4-AM (Invitrogen) in extracellular solution (145 mM NaCl, 5 mM KCl, 10 mM HEPES, 5.55 mM glucose, 1 mM MgCl2, and 2 mM CaCl2, pH 7.4). After 15 min, cells were washed twice with extracellular solutions and treated with bumetanide (as a positive control), DMSO (as a negative control), or each of our compounds at 10 μM or 100 μM, in extracellular solution for 15 min. Plates were then loaded onto a Spark (Tecan) multiplate reader equipped with an automatic liquid injector system, and Fluo4 fluorescence was recorded with excitation at 485 nm and emission at 535 nm. For each well, fluorescence was first recorded for 20 s of the baseline and for 20 s after delivery of GABA (100 μM). To evaluate neuronal viability, fluorescence was recorded for an additional 20 s after delivery of a depolarizing KCl stimulus (90 mM final concentration in wells). To represent the fluorescent traces in time, we normalized the fluorescence value for each time point to the average of the fluorescence value for the first 20 s of the baseline (ΔF/F0). To quantify the average effects as represented by the bar plots, we measured the maximum peak increase in ΔF/F0 fluorescence upon GABA application normalized over the maximum peak increase in ΔF/F0 fluorescence upon KCl application. We then presented in the figures all the data as a percentage of the fluorescence increase versus the value of the control DMSO.

Data set [2] is described as follows: Aqueous kinetic solubility in PBS pH 7.4. It is filed as physicochemical. To be noted: phosphate buffered saline (PBS); aqueous kinetic solubility from 10 mM DMSO solution in PBS pH 7.4; target concentration 250 μM (final DMSO 2.5%). As for the experimental part: 1. Aqueous kinetic solubility.
30 µL aliquots of 10 mM DMSO stock solution of the test compound were incubated in Phosphate
Buffered Saline (PBS) at pH 7.4 at 25°C for 24h. After centrifugation the dissolved compound in the
supernatant was quantified by LC-MS/MS.
Aqueous kinetic solubility was determined by UV quantification at
215 nm. […]

A short description of data set [3]: In vitro mouse plasma stability. It is filed as in vitro ADME. To be noted: mouse plasma at 37 °C; incubated at 5 μM (final DMSO 0.1%); read-out: t1/2 plasma.
A short description of data set [4]: In vitro metabolic stability in mouse liver microsomes. To be noted: tissue homogenate, pH 7.4. The procedure, abridged: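 Compound incubated in mouse liver microsomes in 0.1M Tris-HCl pH 7.4 with 10% DMSO; after pre-incubation NADPH, G6P, G6PDH and MgCl2 added, then 37 °C for 1h, sampled at 0, 5, 15, 30, 60 min.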

This passage reports inhibition, solubility and half-life results from article PMC8311653, “Design, Synthesis, In Vitro and In Vivo Characterization of Selective NKCC1 Inhibitors for the Treatment of Core Symptoms in Down Syndrome” (Journal of Medicinal Chemistry, 2021).

Values after ≈ are worked out from the molar mass of the structure shown.

In data set [1], `CCOc1cc(NCCCCCCCC(F)(F)F)c(S(=O)(=O)N(C)C)cc1C(=O)O` [Compound 42, 5-(N,N-Dimethylsulfamoyl)-2-ethoxy-4-((8,8,8-trifluorooctyl)amino)benzoic Acid] displayed an inhibition at 10 µM of 13.4 ± 1.1%. Besides, testing at 100 µM in data set [1] (100 μM) gave an inhibition of 46.6 ± 3.8%. The concentration in solution in data set [2] (solubility at 24 h) was 43 µM (≈ 19.5 µg/mL). Further, the figures for the half-life at 5 μM in data set [3] and in data set [4] were > 2 h and > 1 h, respectively.
`CN(C)S(=O)(=O)c1cc(C(=O)O)c(OC2CCCC2)cc1NCCCCCCCC(F)(F)F` [Compound 43, 2-(Cyclopentyloxy)-5-(N,N-dimethylsulfamoyl)-4-((8,8,8-trifluorooctyl)amino)benzoic Acid] registered an inhibition at 10 µM in data set [1] of 27.4 ± 7%. For the same compound, in data set [2], the solubility at 24 h turned out to be 11 µM (≈ 5.44 µg/mL). For the same compound, the values for the half-life at 5 μM in data set [3] and in data set [4] were > 2 h and 0.55 h, respectively.
